In brackets after ≈: the same amount, converted by molar mass.
These compounds were tested on P388 (assay: In vivo antitumor activity against mouse P388 cells at 30 ug/kg). Settings: not given.
Assay type: functional

| SMILES | T/C [%] |
| --- | --- |
| C=C(C)[C@@]12C[C@@H](C)[C@@]34OC5(O[C@@H]1[C@@H]3[C@@H]1O[C@]1(CO)[C@@H](O)[C@@]1(O)[C@H]4[C@H]([C@H](C)[C@@H]1OC(=O)c1ccccc1)[C@H](C)CCCCCC[C@H]5O)O2 [KRAUSSIANIN] | 152 |

These compounds were tested on P388 (assay: Cytotoxicity against mouse P388 cells). Settings: read-out: ED50 (the source's name).
Assay type: functional

| SMILES | EC50 [ng/mL] |
| --- | --- |
| C=C(C)[C@@]12C[C@@H](C)[C@@]34OC5(O[C@@H]1[C@@H]3[C@@H]1O[C@]1(CO)[C@@H](O)[C@@]1(O)[C@H]4[C@H]([C@H](C)[C@@H]1OC(=O)c1ccccc1)[C@H](C)CCCCCC[C@H]5O)O2 [KRAUSSIANIN] | 0.78 (≈ 1.19 nM) |
| C=C(C)[C@@]12O[C@@]3(CCCCCCCCC)O[C@@H]1[C@@H]1[C@@H]4O[C@]4(CO)[C@@H](O)[C@]4(O)C(=O)C(C)=C[C@H]4[C@@]1(O3)[C@H](C)[C@H]2OC(=O)c1ccccc1 [GNIDILATIN] | < 1 |
| C=C(C)[C@]12C[C@@H](C)[C@@]34O[C@](/C=C/C=C/CCCCC)(O[C@@H]1[C@@H]3[C@@H]1O[C@]1(CO)[C@@H](O)[C@]1(O)C(=O)C(C)=C[C@H]14)O2 [EXCOECARIA TOXIN] | 0.24 (≈ 0.454 nM) |
| C=C(C)[C@@]12O[C@@]3(/C=C/C=C/CCCCC)O[C@@H]1[C@@H]1[C@@H]4O[C@]4(CO)[C@@H](O)[C@]4(O)C(=O)C(C)=C[C@H]4[C@@]1(O3)[C@H](C)[C@H]2OC(=O)c1ccccc1 [GNIDILATIDIN] | < 1 |
| C=C(C)[C@]12C[C@@H](C)[C@@]34O[C@@]5(CCCCCCC[C@H](C)[C@H]6[C@H](C)[C@H](OC(=O)c7ccccc7)[C@@](O)([C@H](O)[C@@]7(CO)O[C@H]7[C@@H]3[C@H]1O5)[C@@H]64)O2 | 2.3 (≈ 3.6 nM) |

Source: ChEMBL document CHEMBL1151297, “Studies of the Thymelaeaceae II. Antineoplastic principles of Gnidia kraussiana” (1984)
